“Also recorded” adds a separate entry of the source.
Tests used:
[1] = system: T. cruzi trypomastigotes (strain Dm28); test: ESR spin trapping with DMPO in T. cruzi; type: cell-based, Trypanosoma cruzi; conditions: compound about 1 mM, menadione 20 µM
Protocol: (§1) Each tested hybrid was dissolved in spectroscopy-grade DMSO at an approximate concentration of 1 mM and added to a mixture containing Trypanosoma cruzi (Dm28c strain) or Toxoplasma gondii at a density of 50 × 10⁶ trypomastigotes or tachyzoites per mL, along with DMPO at a final concentration of 250 mM. Menadione (20 µM) was used as a positive control.
(§2) All spectra were acquired on the same scale after 15 scans.

[2] = system: T. gondii tachyzoites (strain RH); test: Intracellular ROS generation (DCF probe) in T. gondii; type: cell-based, Toxoplasma gondii; conditions: compound at IC50, menadione 20 µM, 40 minutes, vs untreated control
Protocol: ROS detection was performed using the 2′,7′-dichlorodihydrofluorescein diacetate (DCFH2-DA) method ([45]). For the assay, Dm28c trypomastigotes and tachyzoites were seeded in 96-well plates at a density of 10⁶ parasites/mL. In contrast, BeWo cells were seeded at 5 × 10⁴ cells per well, using the previously described culture medium.
After incubation with 20 µM DCFH2-DA for 15 minutes at 37°C, the parasites were centrifuged at 3,500 × g, washed twice with PBS (pH 7.4), and subsequently transferred to Nunc 96-well fluorescence plates. Meanwhile, after 24 hours of incubation at 37°C and 5% CO₂, the culture medium of BeWo cells was replaced, and 20 µM DCFH2-DA solution was added, followed by a 15 minute incubation at 37°C. The cells were then washed with PBS at pH 7.4. As a positive control, 20 µM menadione was used, while the negative control consisted of culture medium without compounds.
Over time, the area under the fluorescence increase curve was determined using Origin 8 software (version 9.2), with normalization relative to the control. The results correspond to three independent experiments' mean ± standard deviation (SD).

[3] = system: T. gondii tachyzoites (strain RH); test: ESR spin trapping with DMPO in T. gondii; type: cell-based, Toxoplasma gondii; conditions: compound about 1 mM, menadione 20 µM
Protocol: as §1, §2

[4] = system: T. cruzi trypomastigotes, Dm28 strain; test: Resazurin viability assay on free T. cruzi trypomastigotes; conditions: Trypanosoma cruzi, 24 h, read-out: Viability T. cruzi (%)
Protocol: The reduction of resazurin sodium salt was used to determine the trypanocidal and toxoplasmicidal activity of the 6-nitrocoumarin-thiosemicarbazone hybrids 1–8. For this, treatment with the compounds was carried out for 24 h at a concentration of 100 µM.
NFX was used as a positive control for T. cruzi, and PMN was used for T. gondii. Untreated parasites served as a negative control. […] Subsequently, parasites with their respective conditions were transferred to a 96-well white fluorescence reading plate, adding resazurin at a final concentration of […] with 0.8 mM phenazine. The plate was incubated for 3 hours at 37°C in a humidified atmosphere with 5% CO2, and fluorescence measurements were taken using a microplate reader (Thermo Scientific Varioskan Flash) at excitation wavelengths of 560 nm and emission wavelengths of 590 nm.

[5] = Lipophilicity by reversed-phase TLC (RM); conditions: reverse phase-C18, DMSO/phosphate buffer pH 7.4 (70:30 vol/vol), RM = log[(1/Rf) – 1]
Protocol: Lipophilicity was studied by reversed-phase TLC experiments. Precoated TLC plates SIL RP-18W/UV254 were used and eluted with DMSO/physiological serum (70:30, vol/vol). Stock solutions were prepared in pure DMSO (Aldrich) prior to use. The plates were developed in a closed chromatographic tank, dried, and the spots were located under UV light. The Rf values were averaged from three determinations and converted into RM values via the relationship: RM = log [(1/Rf)−1]

[6] = system: intracellular amastigotes of T. cruzi (Tulahuen β-gal); test: Intracellular amastigotes, β-galactosidase-expressing T. cruzi in LLC-MK2 cells (CPRG); type: cell-based, Trypanosoma cruzi; conditions: 72 h
Protocol: The effect of the compounds over intracellular amastigotes of a β-galactosidase-expressing recombinant strain of T. cruzi (Tulahuen β-gal) was also evaluated (see Table S4 at https://doi.org/10.5281/zenodo.15694236). […] Similarly, intracellular anti-T. gondii tachyzoite was assessed using quantitative immunocytochemistry targeting the parasite’s P30 protein (see Table S4 at https://doi.org/10.5281/zenodo.15694236). […] The complete absence of activity of hydroxylated compounds against intracellular forms of both parasites was confirmed, which could be attributed to their inability to permeate mammalian cell membranes.
LLC-MK2 cells (2 × 10^4/well), suspended in 200 µL DMEM with 10% FBSi and 1% antibiotics (penicillin-streptomycin), were placed in each well of a 96-well plate and incubated for 24 hours. Subsequently, the culture medium was removed, and cell monolayers were infected by placing five trypomastigotes per cell in 200 µL of DMEM 2 for 24 hours under the same incubation conditions. After infection, the culture medium was removed, and cells were washed 4 times with 1× sterile PBS. Finally, 10 twofold serial dilutions (200 µM to 0.39 µM concentration range) of each compound, in DMEM 2 without phenol red, were placed in duplicate wells in a 96-well plate and incubated for 72 hours. […] Absorbance at 600 nm was read 4 hours later, in a multimodal GloMax microplate reader (Promega).

[7] = Cyclic voltammetry, reduction potentials in DMSO (HDME, vs. Ag/AgCl); conditions: 2.00 V/s
Protocol: Electrochemical studies were carried out on a Metrohm Autolab instrument model PGSTAT204, using dimethyl sulfoxide (DMSO) as the solvent (1 mM solutions), tetrabutylammonium perchlorate (0.1 M TBAP) as the supporting electrolyte, a hanging drop mercury electrode (HDME) as the working electrode, Ag/AgCl (3M KCl) as the reference electrode and a graphite rod as the counter electrode. All measurements were performed after bubbling with nitrogen (N2) for 10 minutes.

[8] = system: T. gondii tachyzoites, RH strain; test: Resazurin viability assay on free T. gondii tachyzoites; type: cell-based, Toxoplasma gondii
Excerpt: Untreated parasites served as a negative control.

[9] = system: T. gondii (RH strain) in BeWo cells; test: T. gondii DNA load in infected BeWo cells by real-time qPCR; type: cell-based, Toxoplasma gondii; conditions: IC50 concentration
Protocol: (§3) Cells or HPE were exposed to parasites. […] The following treatment conditions were used in both infection models. […] Untreated cells or HPE served as a negative control, and the compounds’ activity was compared with the reference drugs (NFX and PMN).
Subsequently, cells were exposed to parasites at a 1:1 ratio (cell: parasite) for 24 hours. Finally, the cells were washed with PBS and harvested using trypsin. For the parasitic DNA load in the ex vivo infection model, HPE was incubated in 24-well plates and exposed to parasites at a concentration of 10^5 parasites/mL for 24 hours. Finally, they were washed with PBS and homogenized using the ultraturrax homogenizer OMNI TipTM. Genomic DNA was extracted from BeWo cells or HPE using the Wizard Genomic DNA Purification Kit (Promega, USA) following the manufacturer’s instructions. The resulting DNA was quantified using a μDrop Plate DNA quantification system on the Varioskan Flash multimode reader (Thermo Scientific, USA). For the amplification of human DNA and parasitic DNA, three pairs of primers specific for human GAPDH (hGADPH), T. cruzi satellite DNA, and T. gondii B1 gene DNA were used (Table 7). Each reaction mixture contained 0.5 µL of 10 nM of each primer (Forward and reverse), 1 ng of DNA from T. cruzi samples, 10 ng of DNA from T. gondii samples, 10 µL of SensiFASTTM SYBR Hi-ROX kit (Bioline, Heidelberg, Baden Württemberg, Germany), and ultrapure water (Sigma-Aldrich, St. Louis, MO, USA) for a total of 20 µL.
(§4) Amplification was carried out using the CFX96 Touch Deep Well Real-Time PCR Detection System (Biorad, California, USA) with the following cycling program: initial denaturation at 95°C for 3 min, followed by 40 cycles of denaturation at 95°C for 5 s, annealing at 60°C for 30 s, and a dissociation stage ranging from 60°C to 95°C. The relative quantification analysis of the results was expressed as RQ values using the comparative […] (∆∆Ct) ([80]).

[10] = system: HPE exposed to T. gondii tachyzoites; test: Histopathology of HPE infected with T. gondii; type: cell-based, human; conditions: IC50 concentration
Excerpt: as §3

[11] = Cytotoxicity on cells (resazurin), BeWo; type: cell-based; conditions: human, BeWo trophoblast cells
Excerpt: (§5) Triton X-100 was used as a positive control, and untreated cells served as a negative control. In addition, the maximum concentration of DMSO was used as a control for the method. […] The obtained values were expressed as IC50([88]).

[12] = system: T. gondii (RH strain) in HPE; test: T. gondii DNA load in infected human placental explants (HPE) by real-time qPCR; type: cell-based, Toxoplasma gondii; conditions: IC50 concentration
Protocol: The effect on HPE infection of compounds 1 and 7 by Toxoplasma gondii and Trypanosoma cruzi, respectively, was evaluated. To do this, the DNA of the T. gondii or T. cruzi parasite was quantified by infecting HPE for 24 hours under treatment conditions of co-incubation of compounds with the parasite at the same time of infection, and with a 24 hour post-infection treatment. The compound’s IC50 concentration value previously obtained under both conditions was used.
Term human placentas were obtained from uncomplicated pregnancies via scheduled cesarean sections. Each patient provided informed consent for the experimental use of the placenta, and the study was approved by the ethics committee of Hospital San José, Servicio Salud Metropolitano Norte (N° 013/2022). Exclusion criteria for placental use included significant fetal anomalies, placental tumors, intrauterine infection, positive serology for Chagas disease, obstetric pathology, and any other maternal disease. Donor patients tested negative for T. gondii IgG/IgM antibodies. Organs were collected in sterile, cold PBS and processed within 30 minutes after delivery. Maternal and fetal surfaces of each placenta were discarded, and the villous tissue from the central part of the placental cotyledons was isolated. […] All the experiments were performed in triplicate in at least three different placentas.
Cells or HPE were exposed to parasites. […]
Subsequently, cells were exposed to parasites at a 1:1 ratio (cell: parasite) for 24 hours. […] The resulting DNA was quantified using a μDrop Plate DNA quantification system on the Varioskan Flash multimode reader (Thermo Scientific, USA). […]
as §4

[13] = system: human placental explants (HPE); test: Histopathology of uninfected HPE exposed to the compounds alone; conditions: explants incubated only with the compound, 24 h, IC50 concentration
Protocol: The HPE was fixed in 10% formaldehyde in 0.1 M phosphate buffer (pH 7.3) for 24 h, dehydrated in alcohol, clarified in xylene, embedded in paraffin, and sectioned at 3 µm. Paraffin histological sections were stained with hematoxylin-eosin for routine histological analysis, Picro Sirius red, and trichromic Masson for collagen histochemistry. Sections for the histological analysis were observed under an optical microscope (Leica DM500) and images were captured with a Leica ICC50 W camera ([7], [91]).

[14] = Cytotoxicity on cells (resazurin), EA.hy926; type: cell-based; conditions: human, EA.hy926 endothelial cells
Excerpt: as §5

[15] = system: T. gondii (RH strain) in BeWo cells; test: Infection of BeWo cells by T. gondii, infected cells counted by fluorescence microscopy; type: cell-based, Toxoplasma gondii; conditions: compound at IC50, untreated control 64 ± 6
Protocol: The effect of the compounds on the infection of BeWo trophoblast cells by T. gondii and T. cruzi was assessed. The DNA of T. gondii and T. cruzi was quantified in infected BeWo cells treated for 24 hours under two conditions: co-incubation and post-infection treatment. […] Fluorescence microscopy was employed to quantify the number of infected cells. The resulting images were analyzed using ImageJ software to count both infected and uninfected cells.
For the microscopic analysis of BeWo cells infected with T. cruzi, the cells were washed with PBS to remove the supernatant, fixed with 90% cold methanol, rewashed with PBS, and incubated for 5 minutes with 1 µg/mL—1 4,6-diamidino-2-phenylindole (DAPI) (Molecular Probes). To analyze BeWo cells infected with T. gondii, cells were fixed with 90% cold methanol, washed with PBS containing 0.05% Tween, and blocked using 3% BSA for 1 hour at 37°C. Then, they were incubated with the primary monoclonal antibody Toxoplasma gondii (TP3): sc-52255 at a dilution of 1:500 with 1% BSA overnight at 4°C. Afterward, the samples were incubated with the FITC anti-mouse IgG secondary antibody at a dilution of 1:100 with 1% BSA for 1 hour at 37°C. Finally, they were washed with PBS containing 0.05% Tween and incubated for 5 minutes with DAPI. Subsequently, the sections were mounted in Vectashield (ScyTek ACA). Sections for the analysis of cell infection by T. cruzi and T. gondii were observed under an epifluorescence microscope (Motic BA 310), and images were captured with a Motic 5 camera. T. cruzi amastigotes were identified by their morphology, including nuclear size and the presence of a kinetoplast, and were analyzed and quantified using ImageJ. At least 500 cells per condition were analyzed, and infected and non-infected cells were counted for every 100 cells ([35], [70]).
as §3

## CC1=CC(=O)c2ccccc2C1=O [menadione, reference compound]
[1]
  radical species detected by ESR spin trapping (DMPO): triplet (aN ~15.5 G) corresponding to a DMPO-derived oxidized paramagnetic compound
[2]
  ROS generation (DCF fluorescence): significant increase in ROS production
[3]
  radical species detected by ESR spin trapping (DMPO): formation of multiple signals

## C/C(=N\NC(=S)Nc1ccccc1)c1cc2cc([N+](=O)[O-])ccc2oc1=O [Compound 8, (E)−2-(1-(6-nitro-2-oxo-2H-chromen-3-yl)ethylidene)-N-phenylhydrazine-1-carbothioamide]
[4]
  viability at 100 µM: 45.2 ± 6.7%
[5]
  Lipophilicity (RM): 0.20
[6]
  activity over intracellular amastigotes: most active
[7]; anodic peak IIa
  E(pIIa): −0.86 V
[7]; cathodic peak IIIc, hydroxylamine formation
  E(pIIIc): −1.39 V
[7]; cathodic peak IIc, nitro anion radical couple
  E(pIIc): −0.94 V
[7]; cathodic peak IVc, imine reduction
  E(pIVc): −1.68 V
[8]; Toxoplasma gondii, tachyzoites RH, 100 µM, 24 h
  viability at 100 µM: 86.2 ± 14.4%

## CCc1nc(N)nc(N)c1-c1ccc(Cl)cc1 [PMN, pyrimethamine, reference compound]
[9]; co-incubation
  effect on parasite DNA load: more significant
[9]; post-infection treatment
  effect on parasite DNA load: significantly reduced the parasite DNA load
[10]; co-incubation
  tissue damage in infected HPE (histopathology): without causing tissue damage
[10]; post-infection treatment
  tissue damage in infected HPE (histopathology): decreased the induced tissue damage
[11]
  CC50 at 24 h: 125.5 ± 0.8 µM
[12]; 24 hour post-infection treatment
  effect on parasite DNA load: decreased; also recorded: effectively reduced the explants’ parasitic load
[12]; co-incubation
  effect on parasite DNA load: effectively reducing the parasitic load
[13]
  tissue damage caused by the compound itself in HPE: neither compound induced tissue damage
[8]; Toxoplasma gondii, extracellular tachyzoites RH strain, 24 h, resazurin
  IC50: 20.8 ± 1.1 µM
[8]; parasite T. gondii
  SI = BeWo CC50/parasite IC50: 6.03
  SI = EA.hy926 CC50/parasite IC50: 13.8
[14]
  CC50 at 24 h: 287.5 ± 0.9 µM
[15]; co-incubation 24 h
  Infected cells (%): 19 ± 2%
[15]; post-infection treatment 24 h
  Infected cells (%): 16 ± 4%

Reference: PMC12406664, “New derivatives of 6-nitrocoumarin-3-thiosemicarbazone exhibit improved antiparasitic activity in the placenta against Trypanosoma cruzi and Toxoplasma gondii” (Antimicrobial Agents and Chemotherapy, 2025)
